Laboratory results: article PMC8537897, “Design, Synthesis and Biological Evaluation of Aromatase Inhibitors Based on Sulfonates and Sulfonamides of Resveratrol” (Pharmaceuticals, 2021)
Like-named read-outs stand apart in the source and are kept apart here.

Columns and labels:
human aromatase = molecular target: T1, human aromatase (Homo sapiens, UniProt P11511); experiment: Aromatase inhibition, fluorimetric assay kit (Aromatase-CYP19A Inhibitor Screening kit, BioVision); format: biochemical
T1 construct: purchased BioVision, Milpitas, CA, USA
T1 sequence (P11511 1-503): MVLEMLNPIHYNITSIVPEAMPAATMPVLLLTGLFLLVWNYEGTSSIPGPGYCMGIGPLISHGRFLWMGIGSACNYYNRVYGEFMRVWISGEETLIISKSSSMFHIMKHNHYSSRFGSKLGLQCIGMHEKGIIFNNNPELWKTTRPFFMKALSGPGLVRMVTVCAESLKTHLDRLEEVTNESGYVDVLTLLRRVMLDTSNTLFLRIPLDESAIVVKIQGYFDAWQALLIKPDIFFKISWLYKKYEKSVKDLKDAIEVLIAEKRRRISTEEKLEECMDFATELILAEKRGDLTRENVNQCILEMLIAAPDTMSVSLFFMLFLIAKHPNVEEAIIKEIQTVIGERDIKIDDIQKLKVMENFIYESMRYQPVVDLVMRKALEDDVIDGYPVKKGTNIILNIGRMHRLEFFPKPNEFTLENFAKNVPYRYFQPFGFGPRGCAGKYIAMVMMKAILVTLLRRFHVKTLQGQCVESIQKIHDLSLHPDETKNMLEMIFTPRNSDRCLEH
Method: The activity was measured each minute for 60 min and the value obtained for each compound after 10 min was chosen to calculate the percentage of the aromatase inhibition.
The aromatase inhibitory activity was determined using a commercial fluorimetric assay kit (Aromatase-CYP19A Inhibitor Screening kit, BioVision, Milpitas, CA, USA), as reported elsewhere. The assay utilizes a fluorogenic aromatase substrate that is converted into a highly fluorescent metabolite detected in the visible range (Ex/Em 488/527 nm). […] During the incubation, the Aromatase Substrate/NADP+ mixture was prepared, and the reaction was started by adding 30 µL of this solution to each well (aside from the background control), reaching a final reaction volume of 100 µL/well. The fluorescence emission (527 nm) was measured immediately (within 1 min) by means of a fluorometer equipped with a 488 nm filter (GloMax®-Multi Detection System, Promega, Madison, WI, USA) and afterwards monitored for 60 min. […] The assay was performed in the same experimental conditions used for the initial screening of compounds. Dose–response curves were fitted with GraphPad Prism 5.0 (GraphPad Software, San Diego, CA, USA).

[1] = system: MCF7 breast cancer cell line; experiment: Cell metabolic activity / viability (MTT assay) on MCF7; format: cell-based, human; settings: for IC50: Homo sapiens, MTT, tested 0 to 500 µM;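 on all read-outs here: MTT optical density read-out in human MCF7 cells, normalised to DMSO vehicle-treated cells as 100%, with IC50 derived from fitted concentration–response curves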
Method: Human skin fibroblasts (HFF-1, CVCL_3285) and human breast cancer MCF7 (HTB-22™, CVCL_0031) were purchased from ATCC and maintained in Dulbecco’s modified Eagle’s medium (DMEM) high glucose (EuroClone, Milan, Italy) supplemented with 10% of fetal bovine serum (FBS) and 1% of penicillin/streptomycin (Gibco—Thermo Fisher Scientific, MD, USA).
Cell metabolic activity of HFF-1 and MCF7 cells was assessed by MTT (3-(4,5-Dimethylthiazol-2-yl)-2,5-Diphenyltetrazolium Bromide) test (Sigma Aldrich, Milan, Italy). […] After the established exposure times, cells were incubated with MTT (0.5 mg/mL) and the optical density was measured as reported elsewhere [63]. Results were expressed as the percentage of cells in the presence of vehicle (DMSO) set as 100% and each experiment was performed in triplicate (n = 3). Concentration–response curves and IC50 were fitted and calculated with GraphPad Prism 5.0 (GraphPad Software, San Diego, CA, USA).

| Structure (SMILES) | melting point [°C] | inhibition at 1 µM (human aromatase) [%] | other results |
| --- | --- | --- | --- |
| O=S(=O)(Oc1ccc(/C=C/c2ccccc2)cc1)c1ccccc1 [1a, 4-[(E)-2-Phenylvinyl]phenylbenzenesulfonate] | 127 to 130 | – | Aromatase inhibition (in words) (human aromatase; screening at 1 µM): very low activity |
| N#Cc1ccc(S(=O)(=O)Oc2ccc(/C=C/c3ccccc3)cc2)cc1 [1e, 4-[(E)-2-Phenylvinyl]phenyl 4-cyanobenzenesulfonate] | – | 56.1 | – |
| COc1ccc(S(=O)(=O)Oc2ccc(/C=C/c3ccccc3)cc2)c(OC)c1 [1g, 4-[(E)-2-Phenylvinyl]phenyl 2,4-dimethoxybenzenesulfonate] | 141 to 142 | – | – |
| CCS(=O)(=O)Oc1ccc(/C=C/c2ccccc2)cc1 [1i, 4-[(E)-2-Phenylvinyl]phenyl ethanesulfonate] | 112 to 114 | 100 | – |
| O=S(=O)(Oc1ccc(/C=C/c2ccccc2)cc1)c1ccc(Cl)s1 [1k, 4-[(E)-2-Phenylvinyl]phenyl 5-chlorothiophene-2-sulfonate] | 160 to 162 | 60.3 | – |
| O=S(=O)(Nc1ccc(/C=C/c2ccccc2)cc1)c1ccccc1 [2a, N-{4-[(E)-2-Phenylvinyl]phenyl}benzenesulfonamide] | 160 to 162 | 47.8 | – |
| O=[N+]([O-])c1cccc(S(=O)(=O)Nc2ccc(/C=C/c3ccccc3)cc2)c1 [2b, 3-Nitro-N-{4-[(E)-2-phenylvinyl]phenyl}benzenesulfonamide] | 210 to 211 | 67.3 | – |
| Cc1ccc(S(=O)(=O)Nc2ccc(/C=C/c3ccccc3)cc2)cc1[N+](=O)[O-] [2c, 4-Methyl-3-nitro-N-{4-[(E)-2-phenylvinyl]phenyl}benzenesulfonamide] | 246 to 247 | 44.8 | – |
| Oc1ccc(/C=C/c2cc(O)cc(O)c2)cc1 [RSV, trans-3,4′,5-trihydroxystilbene, reference compound] | – | – | IC50 ([1]; MCF7, 24 h, 24 h, read-out: MCF7 Cells IC50 24 h): > 250 µM; IC50 ([1]; MCF7, 72 h, 72 h, read-out: MCF7 Cells IC50 72 h): 83 ± 3.8 µM; Viability (% of control) - 24 h ([1]; MCF7, 10 µM, 24 h): 80.27 ± 3.18 % of control; Viability (% of control) - 72 h ([1]; MCF7, 10 µM, 72 h): 91.92 ± 5.44 % of control; Viability (% of control) - 24 h ([1]; MCF7, 25 µM, 24 h): 84.94 ± 6.59 % of control; Viability (% of control) - 72 h ([1]; MCF7, 25 µM, 72 h): 73.93 ± 9.52 % of control; Viability (% of control) - 24 h ([1]; MCF7, 50 µM, 24 h): 87.44 ± 1.93 % of control; Metabolically active cells ([1]; MCF7, 50 µM, 24 h, DMSO alone = 100%): slightly active at this concentration; Viability (% of control) - 72 h ([1]; MCF7, 50 µM, 72 h): 66.54 ± 5.77 % of control; Viability (% of control) - 24 h ([1]; MCF7, 100 µM, 24 h): 78.29 ± 4.03 % of control; Viability (% of control) - 72 h ([1]; MCF7, 100 µM, 72 h): 47.75 ± 2.67 % of control; Viability (% of control) - 24 h ([1]; MCF7, 250 µM, 24 h): 60.29 ± 0.93 % of control; Viability (% of control) - 72 h ([1]; MCF7, 250 µM, 72 h): 38.05 ± 8.70 % of control; Viability (% of control) - 24 h ([1]; MCF7, 500 µM, 24 h): 34.30 ± 5.01 % of control; Viability (% of control) - 72 h ([1]; MCF7, 500 µM, 72 h): 15.33 ± 4.88 % of control |

Second part, led by results:

| melting point [°C] | inhibition at 1 µM (human aromatase) [%] | Structure (SMILES) | other results |
| --- | --- | --- | --- |
| 182 to 183 | – | Cc1ccc(S(=O)(=O)Nc2ccc(/C=C/c3ccccc3)cc2)cc1 [2d, 4-Methyl-N-{4-[(E)-2-phenylvinyl]phenyl}benzenesulfonamide] | – |
| 238 to 239 | – | N#Cc1ccc(S(=O)(=O)Nc2ccc(/C=C/c3ccccc3)cc2)cc1 [2e, 4-Cyano-N-{4-[(E)-2-phenylvinyl]phenyl}benzenesulfonamide] | – |
| 230 to 231 | – | CC(=O)Nc1ccc(S(=O)(=O)Nc2ccc(/C=C/c3ccccc3)cc2)cc1 [2f, N-{4-[({4-[(E)-2-Phenylvinyl]phenyl}amino)sulfonyl]phenyl}acetamide] | – |
| 213 to 215 | – | COc1ccc(S(=O)(=O)Nc2ccc(/C=C/c3ccccc3)cc2)c(OC)c1 [2g, 2,4-Dimethoxy-N-{4-[(E)-2-phenylvinyl]phenyl}benzenesulfonamide] | – |
| 250 to 251 | – | CS(=O)(=O)Nc1ccc(/C=C/c2ccccc2)cc1 [2h, N-{4-[(E)-2-Phenylvinyl]phenyl}methanesulfonamide] | – |
| 230 to 231 | – | CCS(=O)(=O)Nc1ccc(/C=C/c2ccccc2)cc1 [2i, N-{4-[(E)-2-Phenylvinyl]phenyl}ethanesulfonamide] | – |
